The values that follow are results of earlier work, collected in patent publication US20260272852A1, “COAGULATION PATHWAY AND NICOTINAMIDE-ADENINE DINUCLEOTIDE PATHWAY MODULATING COMPOSITIONS AND METHODS OF THEIR USE” (L'OREAL, priority 2021, published 2026).

Series [1] deals with 585-nm pulsed dye laser-induced purpuras.
Series [2] concerns hyperpigmentation spots, fine lines, and wrinkles. The following applies: moisturizer containing 5% niacinamide, half of face, 12 weeks.
For series [3] the following is noted: topical 4% niacinamide treatment.
For series [4], the system named is suction induced petechia formation. As to conditions: 0.5% vitamin K1 cream twice daily for one week, ten healthy individuals.

Consider vitamin K, for which the “Effect of pretreatment on 585-nm pulsed dye laser-induced purpuras” value in series [1] is reported as “no effect”.

On to `NC(=O)c1cccnc1` [niacinamide], for which the “Hyperpigmentation spots, fine lines, and wrinkles, treated side compared to control side” value in series [2] is on record as “significant improvements”. Moreover, the “Treated patients with good-to-excellent results” value in series [3] is recorded as 44%.

As for `CC1=C(C/C=C(\C)CCC[C@H](C)CCC[C@H](C)CCCC(C)C)C(=O)c2ccccc2C1=O` [vitamin K1, phylloquinone], the “Influence on suction induced petechia formation” value in series [4] was “no influence”.
